The text below walks through data of publication PMC2191966 (The Journal of Experimental Medicine, 1995).

For one data set, the system named is L-Db cells. It counts as cell-based, Murine. The following applies: BFA; functional TAP complex; Fig. 6 a.
Data set [1] has as its system T2-Db cells. It counts as cell-based. Conditions: chloroquine: preincubation 80 μM, infection 60 μM, assay 5 μM; Fig. 6.
The subject of data set [2] is T2-Db cells. The data set can be described thus: 4-h 51Cr CTL assay, clone F5, T2-Db cells with added synthetic peptide. It counts as cell-based.
The conditions of data set [3]: T2-Db lysate with protease inhibitors; Fig. 5.
A further data set concerns T2-Kk cells. It counts as cell-based. The following applies: Kk-restricted anti-[…] line, E:T 10:1, Fig. 9 e.

With `C[C@H]1CCC/C=C/[C@@H]2C[C@H](O)C[C@H]2[C@H](O)/C=C/C(=O)O1` [BFA, brefeldin A], the “effect on presentation of L+ and L- polypeptides in L-Db cells” value with L-Db cells is “Inhibition of presentation of both the L+ and L-polypeptides in L-Db cells”.
As to `CCN(CC)CCCC(C)Nc1ccnc2cc(Cl)ccc12` (stereo not drawn) [chloroquine], the “effect on processing and presentation of L+M364 and L+IMP in T2-Db cells” value with T2-Db cells [1] is listed as “no effect”.
As to IASNENMDAM [365-374], in the data set with T2-Db cells [2] (relative to 366-374, Fig. 3 a), the “relative potency in sensitizing T2-Db cells for lysis” value is given as “followed by 365-374”.
As for MASNENMDAM [M366-374], the “in vitro degradation after cell lysis” value in data set [3] is reported as “Little in vitro degradation of M366-374 occurs after cell lysis”.
Consider QIASNENMDAM [364-374], for which the “loss of potency in sensitizing T2-Db cells for lysis (fold less potent)” value in the data set on T2-Db cells [2] (Fig. 3 a) was “over 10,000 fold”.
Turning to SDYEGRLI, in the data set with T2-Kk cells, the “lowest peptide concentration at which pulsed T2 transfectants are recognized” value is reported as no more than 0.5 nM.
